From patent US4400377A, “Use of polypeptides as analgesic drugs” (priority 1982, dated 1983)
Where two headings read alike, the source gives them in different places. Square brackets hold non-standard residues; d marks the D form. Peptide text beside a SMILES is read from it. sY = N[C@@H](Cc1ccc(OS(=O)(=O)O)cc1)C(=O)O; pGlu = O=C1CC[C@@H](C(=O)O)N1

Experiments:
[1] = test system: patients with pain after surgery
[2] = test system: patients suffering from chronic pain in cancer diseases; conditions: i.v. bolus 1 nanogram/kg, single patients

CSCC[C@H](NC(=O)[C@H](Cc1c[nH]c2ccccc12)NC(=O)CNC(=O)[C@@H](NC(=O)[C@H](Cc1ccc(OS(=O)(=O)O)cc1)NC(=O)[C@H](CC(=O)O)NC(=O)[C@H](CCC(N)=O)NC(=O)[C@@H]1CCC(=O)N1)[C@@H](C)O)C(=O)N[C@@H](CC(=O)O)C(=O)N[C@@H](Cc1ccccc1)C(N)=O [Ceruletide, ceruletide] ([pGlu]QD[sY]TGWMDF-NH2)
Side-effects ([1]; i.m. 0.05 micrograms/kg, single patients (incl. second injection in patients 34, 40)): None | Side-effects ([1]; i.m. 0.1 micrograms/kg, single patients): None and Burning sensation at the injection site and pain sensation at the injection site | Side-effects [2]: None
